Laboratory results as given in patent US5077195A, “Polypeptides complementary to peptides or proteins having an amino acid sequence or nucleotide coding sequence at least partially known and methods of design therefor” (Board of Reagents, The University of Texas System, priority 1986, dated 1991).
Where no end group is shown, it is not given here.

Experiments:
female ICR mice = assay: Induction of catatonia in mice by i.c. injection of serum; format: in vivo; conditions: simultaneous i.c. injection 0.2 mg
Text: It is well known that large doses of opiate-like substances can induce a catatonic state in animals which is inhibited or reversed by treatment with the opiate antagonist naloxone. In analogy with the results in earlier examples, the ability of a peptide (gamma-ODNE) complementary to an opiate peptide, gamma-endorphin, to induce antibodies that have opiate properties was examined.
Gamma-ODNE (Example II) was conjugated to Keyhole Limpet Hemocyanin ([…]) and used with Freund's adjuvant to generate rabbit antibodies in a conventional manner (see Example 1F). Both normal and induced rabbit sera were injected intracerebroventicularly (i.c.) into female ICR mice.

[1] = system: mouse adrenal tumor (Y-1) cells; assay: Glucocorticoid hormone production by Y-1 cells (corticosterone RIA); format: cell-based; conditions: ACTH 10 microunits/well, 18 hrs
Protocol: An induction of glucocorticoid hormone production by ACTH and anti-HTCA was found with cultured mammalian cells. Duplicate cultures of mouse adrenal tumor (Y-1) cells in microtiter plates were treated with culture media, ACTH (10 microunits/well) or various dilutions of the anti-HTCA.
^a Duplicate cultures of mouse adrenal (Y1) cells in microtiter plate
were treated with culture media, ACTH (10 microunits/well) or the
indicated dilutions of antibody to HTCA. After 18 hrs incubation at
37° in 4% CO2, replicate cultures were pooled and assayed for
glucocorticoid hormone production by a radioimmunoassay (RIA) for […]

HTCA = assay: Solid phase radiobinding assay for ACTH in serum on HTCA-coated wells; format: binding; conditions: for Log10 Dilution at which 50% inhibition occurred: graphic interpolation
Protocol: Complementary peptide (HTCA) was dissolved in phosphate buffered saline (PBS) at 1 mg/ml and 200 ul aliquots were placed in wells of a 96 well polyvinyl assay plate (Microtest III, Falcon Cat. #3911). HTCA was allowed to coat the wells overnight at 4° C. The coating solution was removed and the wells were washed three times with PBS. Radiolabeled ACTH (^125 I-ACTH, New England Nuclear NEX-65) was diluted into PBS containing 0.0005% TWEEN-20 so as to deliver 50 pg (or about 30,000 cpm) in a 20 ul volume.
Serum samples were prepared in a 96 well tissue culture plate by serial dilution of serum into PBS/TWEEN 20 to give a final volume of 180 ul/well. The serum samples were then transferred to the HTCA coated a ssay plate and allowed to incubate. Finally, 20 ul of ^125 I-ACTH solution was added, incubated, and the total sample of 200 ul was removed. After washing three times with PBS, the wells were cut from the plate and counted in a gamma counter.
Serum samples used in this study contained either 50 pg/ml or 500 pg/ml of ACTH added to fetal calf serum (FCS).

antibody to ACTH = assay: Competition in standard RIA for ACTH; format: binding
Protocol: Using a standard Radioimmunoassay (RIA) for ACTH (Immuno Nuclear Corporation, CAT. #2400), the ability of antibodies to a peptide (HTCA) complementary to ACTH to bind with antibodies to ACTH was determined. In a Standard RIA for ACTH, unlabelled ACTH is added in known amounts to a solution of radiolabelled ACTH and antibody to ACTH to compete away the binding of radiolabelled ACTH to its antibody. The amount of radiolabel bound is determined by immunoprecipitating the antibody and counting the radioactivity of the precipitiate.
In the experiment, unlabelled ACTH, immunoglobulin from rabbits immunized with the complementary peptide HTCA, and immunoglobulins from normal rabbits were used to compete with radiolabelled ACTH in the RIA. Immunoglobulin (35 mg/ml) solutions were prepared in phosphate buffered saline, and ACTH and ^125 I-ACTH were prepared as specified in the RIA kit.

[2] = system: mouse adrenal tumor (Y-1) cells; assay: Binding of anti-HTCA to affixed Y-1 cells (ELISA); conditions: FIG. 5
Protocol: Mouse adrenal tumor (Y-1) cells were affixed by glutaraldehyde in flat bottom wells of a microtiter plate. The affixed cells were then treated with rabbit anti-KLH or rabbit anti-HTCA alone or in the presence of several levels of ACTH. After washing, the microtiter wells were treated with goat antibody to rabbit immunoglobulin the goat antibody being coupled to the enzyme alkaline phosphatase. After washing away unbound antibody-phosphatase complex, p-nitrophenyl phosphate was added and the enzyme dependent development of absorbancy at […] was monitored. […] ACTH and anti-HTCA appeared competitive for the same binding site on the mouse adrenal tumor (Y-1) cells. Rabbit anti KLH had no effect (shaded region).

bovine gamma-endorphin = target: T1, bovine gamma-endorphin (Bos taurus, UniProt P01190); assay: ELISA binding of gamma-endorphin to coated wells; conditions: gamma-odne 40 ug/well; compared with insulin or BSA coating
T1 construct: purchased Boehringer Mannheim (Indianapolis, IN); host or cells: chemical synthesis
Protocol: The wells of a 96-well round-bottomed microtiter plate were coated (by the procedure described in Example 1B) with gamma-odne (40 ug/well), insulin (20U/well) or bovine serum albumin (BSA, 200 ug/well). Varying concentrations of gamma-endorphin (as shown on the abscissa in FIG. 7) were incubated in the coated wells for 1 hr, after which the plates were thrice washed with PBS-Tween buffer. The wells were then treated with rabbit antibody for gamma-endorphin, washed, and then treated with goat antibody against rabbit immunoglobulin the goat antibody being conjugated to alkaline phosphatase. After washing away unbound goat antibody conjugate, the bound alkaline phosphatase activity was measured with p-nitrophenylphosphate as earlier described. The results of the above manipulations are shown in FIG. 7 where the extent of absorbance at 405 nm reflects the degree of gamma-endorphin binding to wells coated with gamma-odne, insulin or BSA. […] The shaded area in FIG. 7 represents the extent of gamma-endorphin binding in the presence of soluble excess of gamma-odne. Thus it is shown that a second pair of complementary peptides interacts in a manner showing affinity and apparent congruence.

[3] = target: T2, opiate receptors on NG108-15 cells (Mus musculus, UniProt P32300); assay: Binding of ^125 I-beta-endorphin to NG108-15 cells; conditions: read-out: % Inhibition of Specific ^125 I-beta-endorphin
T2 construct: opiate receptors on NG108-15 cells; endogenous in cells; host or cells: NG108-15 cells
Protocol: Seventy percent of the total binding was specific by conventional criteria.
For this experiment, ^125 I-beta-endorphin was preincubated 30 minutes with various amounts of the complementary peptide, gamma-ODNE, before a 30 minute (37° C.) incubation with NG108-15 cells in microtiter wells. After the incubation, cells were washed 3 times and cell associated radioactivity wad determined with a Packard Multi-Prias gamma counter.

Chain of HTCA (as listed by the source): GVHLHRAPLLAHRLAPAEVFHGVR
T2 sequence (P32300 whole entry): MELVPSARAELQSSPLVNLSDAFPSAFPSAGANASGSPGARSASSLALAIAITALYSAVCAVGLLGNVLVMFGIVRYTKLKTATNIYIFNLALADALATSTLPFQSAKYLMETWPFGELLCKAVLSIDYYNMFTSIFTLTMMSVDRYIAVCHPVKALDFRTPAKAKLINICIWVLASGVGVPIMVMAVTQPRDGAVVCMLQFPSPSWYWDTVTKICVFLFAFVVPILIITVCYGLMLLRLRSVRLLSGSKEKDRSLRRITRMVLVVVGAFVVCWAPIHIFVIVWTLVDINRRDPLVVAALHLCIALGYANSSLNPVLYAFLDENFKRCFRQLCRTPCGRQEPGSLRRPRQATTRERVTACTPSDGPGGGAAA

With `C=CCN1CC[C@]23c4c5ccc(O)c4O[C@H]2C(=O)CC[C@@]3(O)[C@H]1C5` [naloxone] the “reversal of serum-induced catatonia (in words)” value (female ICR mice) was “reversed”.
In the case of “ACTH: Synthetic ACTH, fragment 1-24, obtained from Organon; unlabelled ACTH of RIA kit in later examples”, the Corticosterone equivalents ([1]; Experiment 1) is reported as 1.08 µg/mL, the Corticosterone equivalents ([1]; Experiment 2) is reported as 1.42 µg/mL and the “% Inhibition of Specific Binding” value (HTCA; 50 pg/ml ACTH in FCS, Log10 Dilution 0) is reported as 91%. For the same molecule, the “Log10 Dilution at which 50% inhibition occurred” value (HTCA; 50 pg/ml serum sample) was -1.1, the “% Inhibition of Specific Binding” value (HTCA; 50 pg/ml, Log10 Dilution -0.5) was 73% and the “% Inhibition of Specific Binding” value (HTCA; 50 pg/ml, Log10 Dilution -1.0) was 40%. The “% Inhibition of Specific Binding” value (HTCA; 50 pg/ml, Log10 Dilution -1.5) was 44%, the “% Inhibition of Specific Binding” value (HTCA; 50 pg/ml, Log10 Dilution -2.0) was 9% and the “% Inhibition of Specific Binding” value (HTCA; 50 pg/ml, Log10 Dilution -2.5) was 1%. For the same molecule, the “% Inhibition of Specific Binding” value (HTCA; 50 pg/ml, Log10 Dilution -3.0) was 0%, the “% Inhibition of Specific Binding” value (HTCA; 50 pg/ml, Log10 Dilution -3.5) was 0% and the “% Inhibition of Specific Binding” value (HTCA; 500 pg/ml ACTH in FCS, Log10 Dilution 0) was 85%. For the same molecule, the “Log10 Dilution at which 50% inhibition occurred” value (HTCA; 500 pg/ml serum sample) was -2.0, the “% Inhibition of Specific Binding” value (HTCA; 500 pg/ml, Log10 Dilution -0.5) was 90% and the “% Inhibition of Specific Binding” value (HTCA; 500 pg/ml, Log10 Dilution -1.0) was 77%. The “% Inhibition of Specific Binding” value (HTCA; 500 pg/ml, Log10 Dilution -1.5) was 57%, the “% Inhibition of Specific Binding” value (HTCA; 500 pg/ml, Log10 Dilution -2.0) was 53% and the “% Inhibition of Specific Binding” value (HTCA; 500 pg/ml, Log10 Dilution -2.5) was 35%. For the same molecule, the “% Inhibition of Specific Binding” value (HTCA; 500 pg/ml, Log10 Dilution -3.0) was 32%, the “% Inhibition of Specific Binding” value (HTCA; 500 pg/ml, Log10 Dilution -3.5) was 20% and the “Percent Specific Binding” value (antibody to ACTH; competitor 20 pg/ml) was 90%. For the same molecule, the “Percent Specific Binding” value (antibody to ACTH; competitor 50 pg/ml) was 77.5%, the “Percent Specific Binding” value (antibody to ACTH; competitor 100 pg/ml) was 62.2% and the “Percent Specific Binding” value (antibody to ACTH; competitor 200 pg/ml) was 42%. For the same molecule, the “Percent Specific Binding” value (antibody to ACTH; competitor 500 pg/ml) was 21.6% and the “effect on binding to Y-1 cells, absorbancy at 405 nM (in words)” value [2] was “blocked binding of the anti-HTCA in a dose dependent manner”.
With “QRDKGRLALLGGHEPAV [gamma-odne, H2 N--gln--arg--asp--lys--gly--arg--leu--ala--leu--leu--gly--gly--his--glu--pro--ala--val--COOH]” the “gamma-endorphin binding to coated wells, absorbance at 405 nM (in words)” value (bovine gamma-endorphin) was “significantly bound”, the inhibition at 100 µM ([3]; 10^-4 M) was 75 ± 0.6% and the inhibition at 10 µM ([3]; 10^-5 M) was 36 ± 2.1%. For the same molecule, the inhibition at 1 µM ([3]; 10^-6 M, 30 min preincubation with 10^-11 M label) was 24.7 ± 3.9%.
